Experimental data taken from patent US20110178154A1, “GENE EXPRESSION PROFILE THAT PREDICTS OVARIAN CANCER SUBJECT RESPONSE TO CHEMOTHERAPY” (priority 2007, published 2011).
d = 2'-deoxy (DNA); r = 2'-OH (RNA)

What was measured:
[1] = tested on: A2780CP20 ovarian cancer cell line; assay: MTS proliferation assay: cisplatin sensitivity after siRNA pretreatment; assay type: cell-based; conditions: for fold change in cisplatin sensitivity: A2780CP20 cells, compared to siNEG
Description: Cell culture and RNA interference. Ovarian cancer cell lines were routinely maintained in medium supplemented with 10% fetal bovine serum and 2 mM L-glutamine. SKOV3 and OVCAR3 cell lines were maintained in RPMI-1640 medium, OVCA420 and OVCA432 were maintained in 105/199 medium and OVCA420 and CAOV3 cells were maintained in DMEM medium. For 3-(4,5-dimethylthiazol-2-yl)-5-(3-carboxymethoxyphenyl)-2-(4-sulfophenyl)-2H-tetrazolium (MTS) assays, transfections mediated by cationic lipid were performed in 96-well plates. Cells were seeded on a complex of the appropriate siRNA (QIAGEN® Inc., Germantown, Md.) and Oligofectamine (Invitrogen, Carlsbad, Calif.) in unsupplemented growth medium. Final amounts in each well were 50 nM siRNA, 0.5 ul Oligofectamine, and 3000 cells in 100 μL medium. The siRNA target sequences of the synthetic siRNAs were designed against the reference RNA sequence.
MTS proliferation assay. Cell line sensitivity to chemotherapeutic reagents such as cisplatin or taxol was determined by measuring formazan production from MTS (PROMEGA®, Madison, Wis.), with drug concentrations tested in octuplicates in each experiment. For example, serial dilutions of cisplatin or taxol were made shortly before addition to cells. At 48 hours after transfection and seeding, cells were washed by aspiration of the supernatant, and 150 uL of drug-containing medium is added. Another 48 hours later, the drug solution was aspirated and 120 uL MTS-containing medium is added according to the manufacturer's protocol (PROMEGA® #G3580, Madison, Wis.). The plates were incubated at 37° C. and read at 490 nm after 3 hours. Using GraphPad PRISM® 4.02 (GraphPad Software Inc., San Diego, Calif.), the drug concentrations were log-transformed and nonlinear regression is performed on the A490 data using the sigmoidal dose response model with variable slope. Mean EC50 values, standard errors, and 95% confidence intervals were determined from the logistic fits.
(§1) As described above in Example 1, A2780CP20 ovarian cancer cell lines were transfected with siPOLH-2 or siPOLH-5, treated with cisplatin starting 48 hours later, and assayed with MTS 48 hours thereafter. Viable cell number data was acquired by reading the fluorescence emissions at 490 nm. Using GraphPad Prism 4.02, cisplatin drug concentrations were log-transformed and nonlinear regression performed on the A490 data using the sigmoidal dose response model with variable slope to generate the IC50 curves. IC50 values and 95% confidence intervals were determined from the logistic fits.
as §1, with “A2780CP20” for “As described above in Example 1, A2780CP20”, “siREV3L-1” for “siPOLH-2”, “siREV3L-2,” for “siPOLH-5,”, “thereafter (as described above, including Example 1).” for “thereafter.”, “fits. […] Further, a 2.1 fold change in cisplatin sensitivity was detected for siREV3L-1 pretreatment and a 2.9 fold change in such sensitivity for siREV3L-2 pretreatment.” for “fits.”
as §1, with “FIG. 5 illustrates the effect of pretreatment with RNAi against POLH and REV3L on cisplatin resistance.” for “As described above in Example 1,”, “cotransfected” for “transfected”, “siPOLH-5 and siREV3L-2,” for “siPOLH-2 or siPOLH-5,”

POLH = assay: Western blot analysis for POLH after POLH siRNA treatment; assay type: cell-based; conditions: lysates at 24, 48, 72 and 96 hours; 5 ul of 1 ug/ul POLH-siRNA
Description: Cell lysates were collected and examined by Western blot analysis for POLH. After treating cells with 5 ul of 1 ug/ul POLH-siRNA, lysates were collected at 24, 48, 72 and 96 hours and then analyzed for down-regulation of POLH.

| Substance | cell sensitivity to cisplatin when compared to cells treated with siNEG [1] | fold change in cisplatin sensitivity [1] [fold] | POLH expression (down-regulation of POLH) (POLH) |
| --- | --- | --- | --- |
| siPOLH-2: synthetic siRNA against POLH (exon 10), Qiagen cat #SI00089012, SEQ ID NO:8 sense and SEQ ID NO:9 antisense (sense CCAUUUAGGUGCUGAGUUATT; antisense UAACUCAGCACCUAAAUGGAG; sugars from the 5' end r19 d2, backbone not given here) | significantly increased | 1.6 | – |
| siREV3L-2: synthetic siRNA against REV3L (exon 17), Qiagen cat #SI00045633, SEQ ID NO:5 sense and SEQ ID NO:6 antisense (sense CACUGGAAUUAAUGCACAATT; antisense UUGUGCAUUAAUUCCAGUGTG; sugars from the 5' end r19 d2, backbone not given here) | significantly increased | 2.9 | – |
| siPOLH-5: synthetic siRNA against POLH (exon 11), Qiagen cat #SI02663619, SEQ ID NO:11 sense and SEQ ID NO:12 antisense (sense GGUUGUGAGCAUUCGUGUATT; antisense UACACGAAUGCUCACAACCTG; sugars from the 5' end r19 d2, backbone not given here) | significantly increased | 1.9 | inhibit POLH RNA expression |
| siREV3L-1: synthetic siRNA against REV3L (exon 18), Qiagen cat #SI00045626, SEQ ID NO:2 sense and SEQ ID NO:3 antisense (sense GGAUGUAGUCAAACUGCAATT; antisense UUGCAGUUUGACUACAUCCAG; sugars from the 5' end r19 d2, backbone not given here) | significantly increased | 2.1 | – |
